# From paper PMC4413647, “Simultaneous targeting of androgen receptor (AR) and MAPK-interacting kinases (MNKs) by novel retinamides inhibits growth of human prostate cancer cell lines” (Oncotarget, 2014)
# Key:
# fAR, MNK1, MNK2, peIF4E = assay: Western blot of fAR, MNK1, MNK2, peIF4E in VNLG-152 treated LNCaP cells; type: cell-based, human
# Procedure: Figure 6 Effect of siAR, siMNK1 on LNCaP cell viability, and VNLG-152 on key and downstream proteins in LNCaP cells (A) Western blot analysis of the expression of fAR, MNK1 and peIF4E in LNCaP cells transfected with 100 nM of siAR, siMNK1 and combinations for 18 h. (B) Effect of VNLG-152 (5 μmol) on cell proliferation in LNCaP cells transfected with siAR, siMNK1 and combinations as determined by MTT assay. The results represent the mean ± SEM of three independent experiments and are represented as a bar graph after normalizing to control cells. *, P< 0.05; ♣, P<0.01 compared with vehicle treated control. (C) Dose-dependent effect of VNLG-152 on the expression of AR, MNKs, peIF4E and downstream target proteins. Total cell lysate from LNCaP cells treated with VNLG-152 (0 - 20 μmol/L) for 24 h were separated by SDS-PAGE and probed with corresponding antibodies. Vehicle treated cells were included as control and all blots were reprobed for β-actin to ensure equal protein loading.
# Figure 7 VNLG-152 induced AR degradation by ubiquitin proteasomal pathway in LNCaP cells (A) Western blot analysis of the expression of fAR in LNCaP cells treated with VNLG-152 (20 μmol/L) in the presence or absence of CHX (10 μmol/L) at 6, 12 and 24 h of treatment. (B) Densitometric analysis of the expression of fAR in different groups *, P< 0.05; ♣, P<0.01 compared with vehicle treated control. (C) Western blot analysis of the expression of fAR in LNCaP cells treated with VNLG-152 (20 μmol/L) in the presence or absence of MG-132 (5 μmol/L). (D) LNCaP cells were treated with 20 μmol/L of VNLG-152, 5 μmol/L of MG-132, and combinations for 24 h. AR protein was immunoprecipitated with AR antibody (mouse) and the precipitated protein was subjected to western blot analysis with anti-ubiquitin antibody (Ub) ([…]). The same blot was used to detect AR protein with anti-AR (rabbit) antibody after stripping (C, lower panel). […]
# LNCaP cells = assay: Cell cycle FACS analysis (PI staining); type: cell-based, human; conditions: 5 μM, 24 h, untreated control 37.1%
# Procedure: Figure 4 Effect of NRs on cell cycle and apoptosis (A) LNCaP cells treated with 5 μM of NRs and other compounds for 24 h were stained with PI and analysed with a FACS calibur flow cytometer. (B) Total cell lysates from PCa cells treated with 20 μM of NRs were separated by SDS-PAGE and probed with cyclin D1 and B antibodies. […] (C) LNCaP cells were treated with indicated compounds (5 μmol/L) for 24 h and apoptosis induction was examined by oligonucleosomal fragmentation. Data are shown relative to vehicle treated control and the bars are means of three replicate determinations plus standard deviations. *, P< 0.01; ♣, P<0.05 compared with vehicle treated control. […] After 24 h the plates were analyzed for apoptotic and viable cells using acridine orange/ethidium bromide staining. […] (F) Apoptosis induction in LNCaP cells treated with 5 μmol/L of VNLG-147 and -152 in the presence or absence of ZVAD (5 μmol/L) was assessed by oligonucleosomal fragmentation after 24 h incubation. *, P< 0.05 compared with vehicle treated control. […]
# Cells were harvested by trypsinization and then ﬁxed with 70% ethanol for 24 h at 4 °C. […] Stained cells were analyzed with a ﬂow cytometer using FlowJo software that exploits Watson algorithm to find out peak and S-phase populations from a univariate distribution curve.
compound,measurement,setting,value
CC1=C(/C=C/C(C)=C/C=C/C(C)=C/C(=O)Nc2ccc(F)cc2)C(C)(C)CCC1n1ccnc1 (racemic) [VNLG-152],time by which AR and MNK (MNK1 and MNK2) were profoundly reduced,"fAR, MNK1, MNK2, peIF4E; 20 μmol/L",≤ 12 h
same,concentration of maximal effect on MNK2 expression,"fAR, MNK1, MNK2, peIF4E; 0.6-20 μM, 24 h",20 µM
same,"concentration with notable decrease in expression of fAR, MNK1 and peIF4E","fAR, MNK1, MNK2, peIF4E; 0.6-20 μM, 24 h",≥ 2.5 µM
same,percentage of cells in G1 phase,LNCaP cells,74.6%
